# Measured values from patent US12496301B2, “Use of androgen receptor degrader for the treatment of spinal and bulbar muscular atrophy” (Arvinas Operations, Inc., priority 2023, dated 2025).
# “Also recorded” adds a separate entry of the source.
# Assays:
# polyQ-AR [1] = test: Global proteomics in SBMA hiPSC-myotubes: polyQ-AR and specificity; type: cell-based, human
# Excerpt: (§1) (FIG. 12A). […] (FIG. 12C).
# PDE6D = target: T1, PDE6D (Homo sapiens, UniProt O43924); test: Global proteomics / Western blot in SBMA hiPSC-myotubes: neosubstrate PDE6D; type: cell-based; details: hiPSC-myotubes, data not shown
# T1 construct: endogenous in cells; host or cells: SBMA hiPSC-derived myotubes
# Excerpt: as §1
# AR = target: T2, AR (Homo sapiens, UniProt P10275); test: AR agonism assay in MDA-MB-453 ARE-luc reporter cells in the presence of pomalidomide; type: cell-based; details: MDA-MB-453 AR luciferase reporter, with pomalidomide
# T2 sequence (P10275 1-920 Q868H): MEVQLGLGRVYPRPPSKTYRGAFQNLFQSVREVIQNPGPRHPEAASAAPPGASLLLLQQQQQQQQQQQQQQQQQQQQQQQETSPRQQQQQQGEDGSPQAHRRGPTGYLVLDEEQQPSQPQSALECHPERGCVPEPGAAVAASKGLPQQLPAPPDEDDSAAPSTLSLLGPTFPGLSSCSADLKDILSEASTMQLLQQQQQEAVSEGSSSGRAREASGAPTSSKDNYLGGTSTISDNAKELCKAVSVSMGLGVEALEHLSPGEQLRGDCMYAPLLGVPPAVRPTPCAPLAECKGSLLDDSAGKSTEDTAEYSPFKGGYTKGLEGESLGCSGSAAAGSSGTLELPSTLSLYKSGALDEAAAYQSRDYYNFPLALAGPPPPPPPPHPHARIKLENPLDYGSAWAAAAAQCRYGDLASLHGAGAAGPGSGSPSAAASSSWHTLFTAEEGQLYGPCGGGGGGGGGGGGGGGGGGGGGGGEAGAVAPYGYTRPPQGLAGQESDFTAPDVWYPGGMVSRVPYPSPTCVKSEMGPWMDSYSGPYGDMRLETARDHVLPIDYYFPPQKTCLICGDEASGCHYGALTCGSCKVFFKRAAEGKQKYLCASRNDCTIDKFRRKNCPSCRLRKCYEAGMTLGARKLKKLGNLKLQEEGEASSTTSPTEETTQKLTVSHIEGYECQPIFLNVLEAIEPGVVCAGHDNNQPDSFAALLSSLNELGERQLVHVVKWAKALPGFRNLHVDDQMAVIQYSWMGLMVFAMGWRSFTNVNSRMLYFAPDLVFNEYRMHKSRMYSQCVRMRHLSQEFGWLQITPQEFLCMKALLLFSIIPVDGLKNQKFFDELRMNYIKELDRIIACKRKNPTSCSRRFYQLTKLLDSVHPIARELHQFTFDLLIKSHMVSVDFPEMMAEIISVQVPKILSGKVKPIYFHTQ
# Procedure: The AR Responsive Luciferase Reporter MDA-MB-453 Stable Cell Line (MDA-MB-453 ARE-luc) was utilized for the AR agonism assay. These cells constitutively express the firefly luciferase reporter gene under the control of the androgen receptor response element. MDA-MB-453 ARE-luc cells were cultured in RPMI media (Thermo Fisher Scientific) supplemented with 5% charcoal-Dextran treated fetal bovine serum and were maintained at 37° C. in a 5% CO2 incubator. On day 0, the cells were seeded in 96-well plates at a density of 5×10^6 cells per plate. To prevent serum androgen interference during the AR agonism assay, the cells were cultured in phenol-free RPMI media without FBS. On day 1, the cells were treated with the compounds to establish concentration-response curves (CRCs). The compounds were administered at a top concentration of 300 nM with half-log dilutions. The synthetic AR agonist R1881 served as a positive control, with a top concentration of 30 nM and half-log dilutions. E3 ligase inhibitor pomalidomide was included in each well alongside the compounds at a concentration tenfold higher than that of the treated compounds. On day 2, the culture medium was removed, and luminescence data were obtained using the Bright Glo Assay (Promega, Catalog No. E2620) with 50 μL of Bright Glo buffer per well. Luminescence signals were recorded using a plate reader, and the agonism effect was calculated as a percentage using the formula: Agonism effect (%)=(Luminescence signal of compound/Maximum signal of R1881 at 30 nM)*100.
# polyQ-AR [2] = test: Myotube high content imaging of polyQ-AR in myotubes that overexpress polyQ-AR; type: cell-based, human; details: 24 hours treatment, nuclear compartment
# Procedure: Cells were maintained in skeletal growth medium (PromoCell #23160). Immortalized myoblasts harboring inducible human androgen receptor with 56 CAG repeats (hAR56Q) were constructed by lentiviral transduction with CMV-rtTA and TetO-AR56Q-T2A-Puromycin (Mamchaoui, K. et al. Skeletal Muscle 1, 34 (2011)).
# On day 0, immortalized myoblasts with inducible polyQ-AR (described above in “Cell lines”) cells were seeded onto Geltrex-coated 96-well plates at a density of 4×10^6 cells per plate in myoblast basal media (Promocell C-23060) supplemented with 1% penicillin-streptomycin (Pen Strep) antibiotics. The plates were then incubated overnight at 37° C. in a 5% CO2 environment. Upon reaching 100% confluency (Day 1), the myoblast media were aspirated and replaced with myotube differentiation media (Promocell C-23061). The cells were cultured in this differentiation media for 6 days, with media changes occurring every three days.
# On the sixth day of differentiation, the compounds and doxycycline ([…]) diluted in 100% dimethyl sulfoxide (DMSO) were added to the myotubes. The plate was then incubated for 24 hours at 37° C. in an incubator. On the following day (Day 7), the culture media was removed from the plates and replaced with 50 μL of 4% paraformaldehyde (PFA) prepared in 1× phosphate-buffered saline (PBS). The plates were incubated with PFA for 15 minutes, followed by three washes with PBS. Subsequently, the myotubes were permeabilized for 15 minutes using 0.5% Triton X-100 in 1×PBS and then blocked with 5% Bovine Serum Albumin (BSA) (Thermofisher, #37520) for one hour at room temperature. After blocking, the plates were incubated overnight at 4° C. with primary antibodies: a 1:100 diluted Androgen Receptor antibody (D6F11 Cell Signaling 5135S) and a 1:200 diluted Desmin antibody (Thermofisher, MA1-22150) in PBS containing 0.1% BSA. […] Degradation was quantified by determining the average intensity of AR within separate nuclear and cytoplasmic compartments in Desmin positive area (myotubes).
# T1 sequence (O43924 whole entry): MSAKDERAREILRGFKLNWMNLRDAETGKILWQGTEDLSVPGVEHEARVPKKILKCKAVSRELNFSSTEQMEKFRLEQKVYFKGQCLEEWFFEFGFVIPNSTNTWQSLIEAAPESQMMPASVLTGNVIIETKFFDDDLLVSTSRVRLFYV
compound,measurement,setting,value
"CC(C)N(CC1CCN(c2ncc(C(=O)N[C@H]3C(C)(C)[C@H](Oc4ccc(C#N)c(Cl)c4)C3(C)C)cn2)CC1)[C@H]1C[C@H](Oc2ccc3c(c2)C(=O)N(C2CCC(=O)NC2=O)C3=O)C1 (stereo partly drawn) [Compound A, N-((1r,3r)-3-(3-chloro-4-cyanophenoxy)-2,2,4,4-tetramethylcyclobutyl)-2-(4-((((1r,3r)-3-((2-(2,6-dioxopiperidin-3-yl)-1,3-dioxoisoindolin-5-yl)oxy)cyclobutyl)(isopropyl)amino)methyl)piperidin-1-yl)pyrimidine-5-carboxamide]","polyQ-AR degradation compared to control, global proteomics","polyQ-AR [1]; 12 nM, SBMA hiPSC-myotubes",induces degradation of polyQ-AR; also recorded: degrades polyQ-AR
same,neosubstrates (off-target substrates) identified,"polyQ-AR [1]; out of ~7,600 proteins detected in myotubes",single neosubtrate; also recorded: only one neosubstrate
same,reduction of PDE6D by Western blot,PDE6D,~50%
same,agonism activity at Emax relative to R1881,AR,< 40%
same,EC50,"AR; read-out: EC50, AR agonist activity",69 nM
same,mean Dmax for polyQ-AR in myotube nuclei,polyQ-AR [2],approximately 40%
